# Results reported in patent US10435398B2, “Oxazole orexin receptor antagonists” (MERCK SHARP & DOHME CORP., priority 2014, dated 2019).
# How the values were obtained:
# human orexin-2 receptor = human orexin-2 receptor (Homo sapiens (Human), UniProt O43614); experiment: FLIPR Ca2+ Flux Assay, hOX2R; assay type: cell-based; conditions: CHO cells expressing human orexin-2 receptor; agonist 70 pM Ala-6,12 human orexin-A
# Procedure: (§1) The utility of the compounds in accordance with the present invention as orexin receptor OX1R and/or OX2R antagonists may be readily determined without undue experimentation by methodology well known in the art, including the “FLIPR Ca^2+ Flux Assay” (Okumura et al., Biochem. Biophys. Res. Comm. 280:976-981, 2001). In a typical experiment the OX1 and OX2 receptor antagonistic activity of the compounds of the present invention was determined in accordance with the following experimental method. For intracellular calcium measurements, Chinese hamster ovary (CHO) cells expressing the rat or human orexin-1 receptor or the human orexin-2 receptor, are grown in Iscove's modified DMEM containing 2 mM L-glutamine, […], 1% hypoxanthine-thymidine supplement, 100 U/ml penicillin, 100 μg/ml streptomycin and 10% heat-inactivated fetal calf serum (FCS). The cells are seeded at 20,000 cells/well into Becton-Dickinson black 384-well clear bottom sterile plates coated with poly-D-lysine. All reagents were from GIBCO-Invitrogen Corp. The seeded plates are incubated overnight at 37° C. and 5% CO2. Ala-6,12 human orexin-A as the agonist is prepared as a 1 mM stock solution in 1% bovine serum albumin (BSA) and diluted in assay buffer (HBSS containing 20 mM HEPES, 0.1% BSA and 2.5 mM probenecid, pH7.4) for use in the assay at a final concentration of 70 pM. Test compounds are prepared as 10 mM stock solution in DMSO, then diluted in 384-well plates, first in DMSO, then assay buffer. On the day of the assay, cells are washed 3 times with 100 μl assay buffer and then incubated for 60 min (37° C., 5% CO2) in 60 μl assay buffer containing 1 μM Fluo-4AM ester, 0.02% pluronic acid, and 1% BSA. The dye loading solution is then aspirated and cells are washed 3 times with 100 μl assay buffer. 30 μl of that same buffer is left in each well. Within the Fluorescent Imaging Plate Reader (FLIPR, Molecular Devices), test compounds are added to the plate in a volume of 25 μl, incubated for 5 min and finally 25 μl of agonist is added. Fluorescence is measured for each well at 1 second intervals for 5 minutes and the height of each fluorescence peak is compared to the height of the fluorescence peak induced by 70 pM Ala-6,12 orexin-A with buffer in place of antagonist. For each antagonist, IC50 value (the concentration of compound needed to inhibit 50% of the agonist response) is determined. Alternatively, compound potency can be assessed by a radioligand binding assay (described in Bergman et. al. Bioorg. Med. Chem. Lett. 2008, 18, 1425-1430) in which the inhibition constant (Ki) is determined in membranes prepared from CHO cells expressing either the OX1 or OX2 receptor. The intrinsic orexin receptor antagonist activity of a compound which may be used in the present invention may be determined by these assays.
# human orexin-1 receptor = human orexin-1 receptor (Homo sapiens (Human), UniProt O43613); experiment: FLIPR Ca2+ Flux Assay, hOX1R; assay type: cell-based; conditions: CHO cells expressing human orexin-1 receptor; agonist 70 pM Ala-6,12 human orexin-A
# Sequence of human orexin-1 receptor (O43613 whole entry): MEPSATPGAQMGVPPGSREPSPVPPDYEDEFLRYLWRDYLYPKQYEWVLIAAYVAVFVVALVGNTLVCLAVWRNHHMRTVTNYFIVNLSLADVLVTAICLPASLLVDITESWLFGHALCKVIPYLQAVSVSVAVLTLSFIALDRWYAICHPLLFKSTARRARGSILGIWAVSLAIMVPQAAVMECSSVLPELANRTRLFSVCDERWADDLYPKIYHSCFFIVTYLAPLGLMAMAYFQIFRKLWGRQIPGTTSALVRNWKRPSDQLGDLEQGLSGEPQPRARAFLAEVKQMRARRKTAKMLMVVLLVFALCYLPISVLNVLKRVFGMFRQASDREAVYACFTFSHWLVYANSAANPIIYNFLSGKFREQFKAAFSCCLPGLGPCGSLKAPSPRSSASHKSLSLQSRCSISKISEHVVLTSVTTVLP
# Procedure: as §1
# Sequence of human orexin-2 receptor (O43614 whole entry): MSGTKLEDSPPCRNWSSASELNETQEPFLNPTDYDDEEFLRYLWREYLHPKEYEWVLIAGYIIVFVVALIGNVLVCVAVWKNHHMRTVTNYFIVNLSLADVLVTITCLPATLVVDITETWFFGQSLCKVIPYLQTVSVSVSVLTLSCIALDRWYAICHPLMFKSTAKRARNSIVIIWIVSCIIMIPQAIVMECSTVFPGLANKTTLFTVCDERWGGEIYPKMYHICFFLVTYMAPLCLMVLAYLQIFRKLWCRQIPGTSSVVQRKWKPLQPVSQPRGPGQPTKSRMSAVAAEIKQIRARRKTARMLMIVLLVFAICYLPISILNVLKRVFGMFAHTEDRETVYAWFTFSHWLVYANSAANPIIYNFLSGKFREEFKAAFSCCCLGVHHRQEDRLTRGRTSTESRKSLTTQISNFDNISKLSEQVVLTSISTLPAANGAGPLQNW
Structure (SMILES),IC50 (human orexin-2 receptor) [nM],IC50 (human orexin-1 receptor) [nM]
"CCN(CCc1nc(C(C)(C)O)c(C)o1)C(=O)c1cccnc1OCC(F)(F)F [Example 13, N-Ethyl-N-{2-[4-(1-hydroxy-1-methylethyl)-5-methyl-1,3-oxazol-2-yl]ethyl}-2-(2,2,2-trifluoroethoxy)pyridine-3-carboxamide]",98,> 10000
"CCN(CCc1nc(C(C)(C)O)c(C)o1)C(=O)c1ccccc1C(=O)OC [Example 16, Methyl 2-(ethyl{2-[4-(1-hydroxy-1-methylethyl)-5-methyl-1,3-oxazol-2-yl]ethyl}carbamoyl)benzoate]",630,> 10000
"CCN(CCc1nc(C(C)(C)O)c(C)o1)C(=O)c1ccccc1C1CC1 [Example 5, 2-Cyclopropyl-N-ethyl-N-{2-[4-(1-hydroxy-1-methylethyl)-5-methyl-1,3-oxazol-2-yl]ethyl}benzamide]",387,> 10000
"CCN(CCc1nc(C(C)(C)O)c(C)o1)C(=O)c1ccccc1C1(C#N)CC1 [Example 10b, 2-(1-cyanocyclopropyl)-N-ethyl-N-{2-[4-(1-hydroxy-1-methylethyl)-5-methyl-1,3-oxazol-2-yl]ethyl}benzamide]",26,1760
"Cc1oc(CCN(C(=O)c2ccccc2-n2nccn2)C2CCC2)nc1C(C)(C)O [Example 32, N-Cyclobutyl-N-(2-(4-(2-hydroxypropan-2-yl)-5-methyloxazol-2-yl)ethyl)-2-(2H-1,2,3-triazol-2-yl)benzamide]",38,8180
"CCN(CCc1nc(C(C)(C)O)c(C)o1)C(=O)c1cccc(F)c1-n1nccn1 [Example 3, N-Ethyl-3-fluoro-N-{2-[4-(1-hydroxy-1-methylethyl)-5-methyl-1,3-oxazol-2-yl]ethyl}-2-(2H-1,2,3-triazol-2-yl)benzamide]",44,> 10000
"CCCN(CCc1nc(C(C)(C)O)c(C)o1)C(=O)c1ccccc1-n1nccn1 [Example 22, N-{2-[4-(1-Hydroxy-1-methylethyl)-5-methyl-1,3-oxazol-2-yl]ethyl}-N-propyl-2-(2H-1,2,3-triazol-2-yl)benzamide]",19,2370
"CCN(CCc1nc(C(C)(C)O)c(C)o1)C(=O)c1ccc(OC)cc1-n1nccn1 [Example 8, N-Ethyl-N-{2-[4-(1-hydroxy-1-methylethyl)-5-methyl-1,3-oxazol-2-yl]ethyl}-4-methoxy-2-(2H-1,2,3-triazol-2-yl)benzamide]",82,> 10000
"CCN(CCc1nc(C(C)(C)O)c(C)o1)C(=O)c1ccc(F)cc1-n1nccn1 [Example 4, N-Ethyl-4-fluoro-N-{2-[4-(1-hydroxy-1-methylethyl)-5-methyl-1,3-oxazol-2-yl]ethyl}-2-(2H-1,2,3-triazol-2-yl)benzamide]",48,> 10000
